Test results published in ChEMBL document CHEMBL1201862, “PubChem BioAssay data set” (2004).
Calls of active or inactive are those of the source.

Assays:
[1] = target: T1, Short transient receptor potential channel 4 (Mus musculus, UniProt Q9QUQ5); assay: block of DAMGO-driven TRPC4 calcium entry – cell-based, HEK293 TRPC4/mu-opioid, Fluo-4 calcium, dose response (AID 434942); format: functional;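 further: potency of inhibitors blocking the TRPC4 calcium response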
T1 sequence (Q9QUQ5 whole entry): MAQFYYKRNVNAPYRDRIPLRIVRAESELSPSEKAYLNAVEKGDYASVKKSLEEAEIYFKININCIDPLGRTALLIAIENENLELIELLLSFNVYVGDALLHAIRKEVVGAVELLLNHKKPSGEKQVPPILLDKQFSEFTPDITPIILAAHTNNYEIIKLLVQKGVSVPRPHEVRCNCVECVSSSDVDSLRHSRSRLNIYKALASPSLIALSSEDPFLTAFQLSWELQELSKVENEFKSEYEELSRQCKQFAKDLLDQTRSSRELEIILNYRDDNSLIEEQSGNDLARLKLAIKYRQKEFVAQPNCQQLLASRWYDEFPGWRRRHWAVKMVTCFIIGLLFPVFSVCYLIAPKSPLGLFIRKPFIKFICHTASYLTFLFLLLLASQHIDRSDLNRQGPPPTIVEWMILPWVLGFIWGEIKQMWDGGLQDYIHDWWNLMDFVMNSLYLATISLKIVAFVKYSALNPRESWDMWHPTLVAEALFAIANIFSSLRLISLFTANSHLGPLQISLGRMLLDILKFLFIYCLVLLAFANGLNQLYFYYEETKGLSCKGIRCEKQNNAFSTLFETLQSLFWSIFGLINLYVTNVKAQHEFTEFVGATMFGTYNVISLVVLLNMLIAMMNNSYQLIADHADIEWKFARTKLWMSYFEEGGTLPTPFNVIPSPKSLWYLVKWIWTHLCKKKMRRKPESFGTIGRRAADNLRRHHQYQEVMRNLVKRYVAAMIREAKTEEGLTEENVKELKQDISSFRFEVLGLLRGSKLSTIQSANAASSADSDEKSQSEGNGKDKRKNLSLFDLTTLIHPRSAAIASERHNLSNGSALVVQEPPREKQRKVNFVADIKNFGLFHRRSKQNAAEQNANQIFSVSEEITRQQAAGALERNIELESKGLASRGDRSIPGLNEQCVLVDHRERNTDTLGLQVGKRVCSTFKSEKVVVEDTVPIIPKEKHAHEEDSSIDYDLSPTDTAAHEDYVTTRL

[2] = target: T2, Heat shock factor protein 1 (Mus musculus, UniProt P38532); assay: decrease of HSF1-responsive luciferase luminescence – cell-based, NIH3T3, dose retest, confirmation (AID 2382); format: functional;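 further: NIH3T3 fibroblasts with HSF1-driven luciferase reporter stressed by proteasome inhibitor MG132; luminescence from HSF1-driven luciferase expression after 8 hours of MG132 stress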
T2 sequence (P38532 whole entry): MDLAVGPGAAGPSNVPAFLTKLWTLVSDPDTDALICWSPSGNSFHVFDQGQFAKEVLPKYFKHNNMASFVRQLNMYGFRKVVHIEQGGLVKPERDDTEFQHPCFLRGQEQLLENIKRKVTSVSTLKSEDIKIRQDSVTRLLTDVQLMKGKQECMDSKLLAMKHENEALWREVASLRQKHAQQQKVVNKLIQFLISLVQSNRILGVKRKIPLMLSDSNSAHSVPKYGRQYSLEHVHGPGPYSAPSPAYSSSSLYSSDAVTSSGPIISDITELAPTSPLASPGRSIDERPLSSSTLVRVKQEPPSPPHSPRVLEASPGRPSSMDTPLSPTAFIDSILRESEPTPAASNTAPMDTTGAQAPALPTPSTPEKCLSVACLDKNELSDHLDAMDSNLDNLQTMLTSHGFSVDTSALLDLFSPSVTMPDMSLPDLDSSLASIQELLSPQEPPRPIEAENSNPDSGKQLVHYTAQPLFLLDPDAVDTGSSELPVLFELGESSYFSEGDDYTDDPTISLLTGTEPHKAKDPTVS

Bcl-2-like protein 10 = Bcl-2-like protein 10 (Homo sapiens, UniProt Q9HD36); assay: Bcl-B/TR3 peptide binding disruption – biochemical, fluorescence polarization, FITC-TR3 peptide, selectivity assay for Bfl-1 inhibitor project, primary screen (AID 748);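 further: fluorescence polarization from a fluorescein-labelled TR3 peptide binding purified Bcl-B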
Bcl-2-like protein 10, sequence (Q9HD36 whole entry): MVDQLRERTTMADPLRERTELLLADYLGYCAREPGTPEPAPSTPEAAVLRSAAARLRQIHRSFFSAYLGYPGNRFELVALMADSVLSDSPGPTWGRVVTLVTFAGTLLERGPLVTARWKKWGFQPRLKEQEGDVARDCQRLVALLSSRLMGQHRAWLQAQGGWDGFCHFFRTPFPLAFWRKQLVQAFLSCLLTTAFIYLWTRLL

SMILES	EC50 [1]	EC50 [2]	IC50 (Bcl-2-like protein 10)
Cc1ccc(OCc2cc(C(=O)N(C)CCc3nc4ccccc4[nH]3)no2)cc1C	1.06 µM (active)	> 195 µM (not active)	
Cc1ccc(S(=O)(=O)Nc2cccc(C(=O)NCC(c3ccco3)N3CCCCC3)c2)cc1F (centres undefined)	0.267 µM (active)		
O=C1c2ccccc2C(=O)N1CC#CCN1CCN(C2CCCCC2)CC1			> 100 µM (inactive)
